± gives the standard deviation of the averaged measurements.
Key:
[1] = compound: CCN(CC)CCCCNc1ncc2cc(-c3cc(OC)cc(OC)c3)c(NC(=O)NC(C)(C)C)nc2n1; test: area under dose-response curve of surviving fraction (unscaled, Aref=0) (surviving fraction x log10(nM)); higher = more resistant; settings: exposure time: 5 days; dose range 0.5-1000 nM
Summary of the method: (§1)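 Tumour cell lines in 384-well plates were exposed for five days to eight inhibitor concentrations from 0.5 to 1000 nM. Viability was read by CellTiter-Glo luminescence, normalised to DMSO-only wells, in three screens per line. Dose-response survival curves were fitted to surviving fractions by 3-parameter logistic regression in the drc R package. Area under the curve is the unscaled activity area (Aref = 0) over log10 dose.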

SALINOMYCIN = compound: CC[C@@H](C(=O)[C@@H](C)[C@@H](O)[C@H](C)[C@@H]1O[C@@H]([C@@H](CC)C(=O)O)CC[C@@H]1C)[C@H]1O[C@]2(C=C[C@@H](O)[C@]3(CC[C@@](C)([C@H]4CC[C@](O)(CC)[C@H](C)O4)O3)O2)[C@H](C)C[C@@H]1C [SALINOMYCIN]; test: as above; settings: exposure time: 5 days; dose range 0.5-1000 nM
Summary of the method: as §1

DOXORUBICIN = compound: COc1cccc2c1C(=O)c1c(O)c3c(c(O)c1C2=O)C[C@@](O)(C(=O)CO)C[C@@H]3O[C@H]1C[C@H](N)[C@H](O)[C@H](C)O1 [DOXORUBICIN]; test: as above; settings: exposure time: 5 days; dose range 0.5-1000 nM
Summary of the method: as §1

17-AAG = compound: C=CCNC1=C2C[C@@H](C)C[C@H](OC)[C@H](O)[C@@H](C)/C=C(\C)[C@H](OC(N)=O)[C@@H](OC)/C=C\C=C(/C)C(=O)NC(=CC1=O)C2=O [17-AAG]; test: as above; settings: exposure time: 5 days; dose range 0.5-1000 nM
Summary of the method: as §1

DECITABINE [2] = compound: T1, Nc1ncn([C@H]2C[C@H](O)[C@@H](CO)O2)c(=O)n1 [DECITABINE]; test: as above; settings: exposure time: 5 days; dose range 0.5-1000 nM
Summary of the method: as §1

NUTLIN3 = compound: COc1ccc(C2=N[C@@H](c3ccc(Cl)cc3)[C@@H](c3ccc(Cl)cc3)N2C(=O)N2CCNC(=O)C2)c(OC(C)C)c1 [NUTLIN3]; test: as above; settings: exposure time: 5 days; dose range 0.5-1000 nM
Summary of the method: as §1

RESVERATROL = compound: Oc1ccc(/C=C/c2cc(O)cc(O)c2)cc1 [RESVERATROL]; test: as above; settings: exposure time: 5 days; dose range 0.5-1000 nM
Summary of the method: as §1

2-METHOXYESTRADIOL = compound: COc1cc2c(cc1O)CC[C@@H]1[C@@H]2CC[C@]2(C)[C@@H](O)CC[C@@H]12 [2-METHOXYESTRADIOL]; test: as above; settings: exposure time: 5 days; dose range 0.5-1000 nM
Summary of the method: as §1

FLAVOPIRIDOL = compound: CN1CC[C@H](c2c(O)cc(O)c3c(=O)cc(-c4ccccc4Cl)oc23)[C@H](O)C1 [FLAVOPIRIDOL]; test: as above; settings: exposure time: 5 days; dose range 0.5-1000 nM
Summary of the method: as §1

VISMODEGIB = compound: CS(=O)(=O)c1ccc(C(=O)Nc2ccc(Cl)c(-c3ccccn3)c2)c(Cl)c1 [VISMODEGIB]; test: as above; settings: exposure time: 5 days; dose range 0.5-1000 nM
Summary of the method: as §1

LAPATINIB = compound: CS(=O)(=O)CCNCc1ccc(-c2ccc3ncnc(Nc4ccc(OCc5cccc(F)c5)c(Cl)c4)c3c2)o1 [LAPATINIB]; test: as above; settings: exposure time: 5 days; dose range 0.5-1000 nM
Summary of the method: as §1

ABT-737 = compound: CN(C)CC[C@H](CSc1ccccc1)Nc1ccc(S(=O)(=O)NC(=O)c2ccc(N3CCN(Cc4ccccc4-c4ccc(Cl)cc4)CC3)cc2)cc1[N+](=O)[O-] [ABT-737]; test: as above; settings: exposure time: 5 days; dose range 0.5-1000 nM
Summary of the method: as §1

DECITABINE [3] = compound: T1, DECITABINE; test: surviving fraction relative to DMSO-only wells; higher = less growth inhibition; settings: exposure time: 5 days
Summary of the method: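 Tumour cell lines in log phase were plated in 384-well plates at 250–500 cells per well, then, after 24 hours, exposed continuously for five days to inhibitors at 0.5, 1, 5, 10, 50, 100, 500 and 1000 nM. Viability came from CellTiter-Glo luminescence, and surviving fraction is that signal normalised to the median of DMSO-only wells. Plates were read after 10 minutes at room temperature, and each line, screened three times, was kept only when replicate Pearson r was >0.7 and median Z' was >0.3.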

Row | Test System | area under dose-response curve [1] | area under dose-response curve (SALINOMYCIN) | area under dose-response curve (DOXORUBICIN) | area under dose-response curve (17-AAG) | area under dose-response curve (DECITABINE [2]) | area under dose-response curve (NUTLIN3) | area under dose-response curve (RESVERATROL) | area under dose-response curve (2-METHOXYESTRADIOL) | area under dose-response curve (FLAVOPIRIDOL) | area under dose-response curve (VISMODEGIB) | area under dose-response curve (LAPATINIB) | area under dose-response curve (ABT-737) | surviving fraction (DECITABINE [3]; 0.5 nM) | surviving fraction (DECITABINE [3]; 1 nM) | surviving fraction (DECITABINE [3]; 5 nM) | surviving fraction (DECITABINE [3]; 10 nM) | surviving fraction (DECITABINE [3]; 50 nM) | surviving fraction (DECITABINE [3]; 100 nM) | surviving fraction (DECITABINE [3]; 500 nM) | surviving fraction (DECITABINE [3]; 1000 nM)
1 | SKBR3 BREAST | 3.1 | 2.84 | 1.72 | 1.25 | 3.29 | 2.96 | 3.5 | 3.2 | 2.07 | 3.07 | 2.38 | 3.52 | 1.02 ± 0.11 | 1.12 ± 0.0031 | 1.13 ± 0.035 | 0.959 ± 0.042 | 1.03 ± 0.094 | 1 ± 0.1 | 0.996 ± 0.017 | 0.931 ± 0.089
2 | SYO1 SYNOVIAL | 2.51 | 2.04 | 0.851 | 1.74 | 2.46 | 2.9 | 3.23 | 2.75 | 1.9 | 3 | 3.2 | 3 | 0.991 ± 0.024 | 0.998 ± 0.021 | 0.933 ± 0.021 | 0.917 ± 0.022 | 0.663 ± 0.015 | 0.629 ± 0.013 | 0.439 ± 0.02 | 0.383 ± 0.0062
3 | T47D BREAST | 3.36 | 3.3 | 2.13 | 2.74 | 3.53 | 3.35 | 3.51 | 3.15 | 2.51 | 3.3 | 3.39 | 3.61 | 1.03 ± 0.049 | 1.06 ± 0.035 | 1.05 ± 0.029 | 1.04 ± 0.028 | 1.12 ± 0.049 | 1.08 ± 0.024 | 1.04 ± 0.049 | 1.06 ± 0.057
4 | VCAP PROSTATE | 3.48 | 2.89 | 2.3 | 2.25 | 3.68 | 3.78 | 3.11 | 3.12 | 2.26 | 3.36 | 3.07 | 3.49 | 1.11 ± 0.099 | 1.17 ± 0.031 | 1.25 ± 0.14 | 1.18 ± 0.095 | 1.09 ± 0.035 | 1.09 ± 0.11 | 1.01 ± 0.094 | 0.875 ± 0.062

Source: the supplement of paper PMC6045584
